The subject of data set [1] is PI3K →pAkt. Nature of the data set: Cellular substrate phosphorylation (Western blotting), PI3K substrate Akt. Format: cell-based. Conditions: 5 h, tumour cell line. Here is the method: (§1) This method enables a statement of whether the kinase modulator investigated achieves the desired effect in a cellular context too, i.e., in this case, a substrate protein downstream of the target kinase is examined for its phosphorylation status. To this end, the cells incubated with substance are lysed and the overall protein is separated on a reducing polyacrylamide gel. Subsequently, the proteins are transferred by means of Western blotting to a PVDF membrane and the substrate bands sought are made visible with specific antibodies and a suitable detection method. The substrate proteins downstream of the target kinases are detected simultaneously with an anti-phospho antibody which is specific in each case and simultaneously a total antibody which recognizes the substrate total protein. The duplex technology of the ODYSSEY imager (LiCOR) enables this simultaneous measurement. The intensity of the total substrate bands is employed to normalize and quantify the phosphorylation inhibition or activation.
(§2) Suitable tumour cell lines (e.g. BxPC3, Hct116 or MDA MB468) were seeded into 6-well microtitre plates in a defined cell count (e.g. 350 000 cells/well for BxPC3 and Hct116) in the particular standard complete media and then incubated overnight in an incubator at 37° C., 5% CO2 and 95% air humidity. The cells were then incubated further for a further 24 h under reduced-serum conditions, i.e. in the particular medium except at only 0.25% serum. The test substances were made up as stock solutions (10 mM) in DMSO and incubated with the cells at final concentrations of 5, 15.8 and 50 μM for 5 h. This was followed by cell lysis in 25 mM Tris, 150 mM NaCl, 10 mM sodium pyrophosphate, 2 mM EGTA, 25 mM beta-glycerophosphate, 25 mM NaF, 10% glycerol, 0.75% NP-40, 100 μM NaVO4 buffer. After protein quantification by means of BCA (bicinchonic acid protein assay kit, Sigma) assay, amounts of protein of about 20 μg per track were separated on a Lammli polyacrylamide gel and then transferred onto a PVDF membrane (Millipore) by means of semi-dry Western blotting at 0.8 mA/cm^2 for 1 h. This was followed by prehybridization of the membrane for 1 hour in I-block reagent (Applied Biosystems) and overnight incubation with the specific antibodies. To determine the Erk and PI3K inhibition, the next substrates Rsk1 downstream were detected with the total antibody (Rsk #sc-231g C-21, Santa Cruz) and the phospho antibody (Phospho-p90RSK (S380) #9341, NEB Cell Signalling) and Akt with the total antibody (Akt1 #sc-20, Santa Cruz) and the phospho antibody (Phospho-Akt (Ser 473) #9271, NEB Cell Signaling). After the membrane had been washed, the secondary antibodies were incubated with anti-rabbit IR Dye 800 (#611-732-127, Rockland) for the phospho antibody and anti-goat Alexa Fluor 680 (#A-21081, […]) for the total protein antibody. After incubation for 30 min at room temperature in the dark, the hybridization of the detection antibody was detected on the membrane by scanning in an ODYSSEY imager (LiCOR).
In general terms: A western blot detects proteins with antibodies after separation by electrophoresis.

For data set [2], the system named is Erk →pRsk. Description: Cellular substrate phosphorylation (Western blotting), Erk substrate Rsk1. The following applies: 5 h, tumour cell line. Format: cell-based. Here is the method: as §1, §2
Data set [3] deals with Jnk1 + Jnk2. Description: Cell-free kinase assay (ALPHA technology), Jnk1 + Jnk2. The format is biochemical. The following applies: at 10 μM or 100 μM* ATP, recombinant human kinases. Here is the method: (§3) The inhibitory effect of the inventive compounds was tested on various human serine/threonine kinases, tyrosine kinases and lipid kinases in enzymatic assays. Recombinant human kinases, for example Erk2, PI3Kalpha, -beta, -gamma, -delta, p38alpha, p38gamma, Jnk1, Jnk2 and others were used, in some cases as full-length kinases, in some cases as truncated fragments—but at least consisting of the functional kinase domains. The commercial kinase proteins (Proqinase, Upstate) were used as recombinant fusion proteins with GST (glutathione S-transferase) tag or His tag. Depending on the substrate type, the different kinase reactions were quantified by means of suitable ALPHA™ beads (PerkinElmer). […]
(§4) The fluorescence was detected the next morning in a Fusion™ alpha instrument (Perkin Elmer).
(§5) The calculation of % inhibition values per substance concentration was done by means of the following formula from the raw data determined in the Fusion™ alpha:
(§6) The controls were each determined 8 times, the substance samples each twice. 0% control contained neither any ATP nor any substrate; the 100% control contained no test substance. The IC50 values were determined with GraphPadPrism.

The test system of data set [4] is Hct116. Nature of the data set: XTT assay, anti-proliferative action, Hct116. Format: cell-based. Conditions: Homo sapiens, HCT-116, 45 h, Hct116 cells, 45 h incubation. Here is the method:
(§7) The principle of this test is based on the intracellular reduction of the tetrazolium dye XTT (sodium 3′-[1-(phenylaminocarbonyl)-3,4-tetrazolium]bis(4-methoxy-6-nitro)benzenenesulphonic acid, Sigma) to a formazan dye by mitochondrial dehydrogenases.
(§8) The dye is formed only by metabolically active cells; its photometrically measurable intensity is a quantitative indicator for the presence of living cells. The reduction in the dye formation as a result of incubation of the cells with substances serves as a parameter for the anti-proliferative action.
(§9) The tumour cell lines (ATCC) were seeded in 96-well microtitre plates in a defined cell count (5000 cells/well for BxPC3 and Hct116; 10 000 cells/well for MDA MB468), and then incubated overnight in an incubator at 37° C., 5% CO2 and 95% air humidity. The test substances were made up as stock solutions (10 mM) in DMSO. […] The cell plates were then incubated for 45 h in an incubator at 37° C., 5% CO2 and 95% air humidity.
(§10) For the detection reaction, the XTT substrate was admixed with PMS (N-methyldibenzopyrazine methylsulphate, Sigma) and added to the cells, so as to result in a final concentration of 325 μg of XTT/ml and 2.5 μg PMS/ml. The mixture was then incubated for 3 h at 37° C., 95% air humidity. Subsequently the formazan salt formed by cellular dehydrogenases was quantified at an absorption of 490 nm.
(§11) The evaluation of the % inhibition values was done by means of the following formula from the values for the optical densities measured in each case at 490 nm:
(§12) The controls were determined 8 times each, the substance samples twice each. 0% control contained no cells; the 100% control contained no test substance. The EC50 values were determined with GraphPadPrism.
In general terms: Tetrazolium dyes change colour on reduction, which living cells bring about.

In data set [5] the target is T1, Erk2.
T1 construct: in some cases as full-length kinases, in some cases as truncated fragments; purchased Upstate 14-173
T1 sequence (P63085 whole entry, the tested form may be a part): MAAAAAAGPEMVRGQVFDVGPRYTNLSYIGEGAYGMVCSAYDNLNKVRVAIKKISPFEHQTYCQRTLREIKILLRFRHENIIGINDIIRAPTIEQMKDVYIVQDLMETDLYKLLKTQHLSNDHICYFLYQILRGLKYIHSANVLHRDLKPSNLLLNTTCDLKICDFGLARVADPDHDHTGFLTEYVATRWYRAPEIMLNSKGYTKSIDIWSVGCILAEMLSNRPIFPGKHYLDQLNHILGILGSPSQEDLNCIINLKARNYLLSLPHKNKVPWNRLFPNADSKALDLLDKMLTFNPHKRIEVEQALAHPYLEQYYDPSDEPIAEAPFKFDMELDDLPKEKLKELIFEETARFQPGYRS
Description: Cell-free kinase assay (ALPHA technology), Erk2-ALPHA. The format is biochemical. The following applies: 10 μM ATP, recombinant human kinase. Here is the method: (§13) The inhibitory effect of the inventive compounds was tested on various human serine/threonine kinases, tyrosine kinases and lipid kinases in enzymatic assays. Recombinant human kinases, for example Erk2, PI3Kalpha, -beta, -gamma, -delta, p38alpha, p38gamma, Jnk1, Jnk2 and others were used, in some cases as full-length kinases, in some cases as truncated fragments—but at least consisting of the functional kinase domains. The commercial kinase proteins (Proqinase, Upstate) were used as recombinant fusion proteins with GST (glutathione S-transferase) tag or His tag. Depending on the substrate type, the different kinase reactions were quantified by means of suitable ALPHA™ beads (PerkinElmer).
(§14) The substrate testing on the Erk assay is described in detail below. Selected test results of the Erk2, PI3Kalpha assays are cited below. […] The kinase reaction was then stopped by adding 10 μl of the ALPHA bead mix (10 μg/ml, #6760617/PerkinElmer), pre-incubated with anti-phospho MBP antibody (320 μM, #05-429/Upstate), in 25 mM Tris, 200 mM NaCl, 100 mM EDTA and 0.3% BSA, and left to stand overnight. • b) PI3K-ALPHAs (e.g. PI3Kalpha): The test substance, 1 ng of PI3Kalpha (#14-602, Upstate), 100 μM ATP and 20 μM PIP2 substrate (#P4508, Echelon) on a 384-well Optiplate (Perkin Elmer) for 1 h in 50 mM Hepes, 50 mM NaCl, 5 mM MgCl2, 0.05% Chaps, 5 mM DTT at pH 7.4. Subsequently, the kinase reaction was stopped by adding the ALPHA bead mix (10 μg/ml, #6760603/PerkinElmer), preincubated with 1 nM GST:Grp1 fusion protein (Upstate) and 15 nM biotinylated PIP3 (#C-39B6/Echelon) in 50 mM Hepes, 50 mM NaCl, 50 mM EDTA and 0.1% BSA, and left to stand overnight.
as §4, §5, §6

Data set [6] deals with MDA-MB468. Nature of the data set: XTT assay, anti-proliferative action, MDA-MB468. Conditions: MDA-MB468 cells, 45 h incubation. The format is cell-based. Here is the method:
as §7, §8, §9, §10, §11, §12

The target in data set [7] is T2, PI3Kalpha (Homo sapiens, UniProt P42336).
T2 construct: in some cases as full-length kinases, in some cases as truncated fragments; purchased Upstate 14-602
T2 sequence (P42336 whole entry, the tested form may be a part): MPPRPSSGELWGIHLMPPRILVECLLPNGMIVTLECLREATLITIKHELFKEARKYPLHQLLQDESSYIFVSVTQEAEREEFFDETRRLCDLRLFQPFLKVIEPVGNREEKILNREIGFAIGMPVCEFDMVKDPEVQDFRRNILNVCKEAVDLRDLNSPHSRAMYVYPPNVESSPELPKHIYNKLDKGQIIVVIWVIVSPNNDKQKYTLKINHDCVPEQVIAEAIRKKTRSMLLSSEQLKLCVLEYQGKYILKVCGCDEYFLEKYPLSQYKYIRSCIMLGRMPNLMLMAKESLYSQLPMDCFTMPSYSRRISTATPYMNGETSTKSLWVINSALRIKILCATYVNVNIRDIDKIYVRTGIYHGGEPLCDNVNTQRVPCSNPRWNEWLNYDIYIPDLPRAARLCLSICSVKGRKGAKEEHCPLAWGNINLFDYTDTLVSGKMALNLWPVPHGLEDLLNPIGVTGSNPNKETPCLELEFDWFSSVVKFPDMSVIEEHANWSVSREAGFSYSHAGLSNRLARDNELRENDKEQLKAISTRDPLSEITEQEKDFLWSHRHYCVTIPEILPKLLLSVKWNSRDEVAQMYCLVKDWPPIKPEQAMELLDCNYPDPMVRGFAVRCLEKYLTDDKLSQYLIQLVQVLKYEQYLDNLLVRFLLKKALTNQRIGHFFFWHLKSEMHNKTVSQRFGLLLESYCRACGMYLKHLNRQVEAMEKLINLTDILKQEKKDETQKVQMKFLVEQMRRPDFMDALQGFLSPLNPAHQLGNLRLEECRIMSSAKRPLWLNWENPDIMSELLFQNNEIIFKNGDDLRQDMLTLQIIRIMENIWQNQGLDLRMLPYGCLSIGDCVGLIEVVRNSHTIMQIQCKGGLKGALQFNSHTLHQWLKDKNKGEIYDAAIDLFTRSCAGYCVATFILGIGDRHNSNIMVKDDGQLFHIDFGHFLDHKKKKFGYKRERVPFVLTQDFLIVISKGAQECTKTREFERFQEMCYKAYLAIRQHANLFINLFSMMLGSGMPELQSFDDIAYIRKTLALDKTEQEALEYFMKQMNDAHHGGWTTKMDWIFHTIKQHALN
T2 sequence (P27986 whole entry partner, the tested form may be a part): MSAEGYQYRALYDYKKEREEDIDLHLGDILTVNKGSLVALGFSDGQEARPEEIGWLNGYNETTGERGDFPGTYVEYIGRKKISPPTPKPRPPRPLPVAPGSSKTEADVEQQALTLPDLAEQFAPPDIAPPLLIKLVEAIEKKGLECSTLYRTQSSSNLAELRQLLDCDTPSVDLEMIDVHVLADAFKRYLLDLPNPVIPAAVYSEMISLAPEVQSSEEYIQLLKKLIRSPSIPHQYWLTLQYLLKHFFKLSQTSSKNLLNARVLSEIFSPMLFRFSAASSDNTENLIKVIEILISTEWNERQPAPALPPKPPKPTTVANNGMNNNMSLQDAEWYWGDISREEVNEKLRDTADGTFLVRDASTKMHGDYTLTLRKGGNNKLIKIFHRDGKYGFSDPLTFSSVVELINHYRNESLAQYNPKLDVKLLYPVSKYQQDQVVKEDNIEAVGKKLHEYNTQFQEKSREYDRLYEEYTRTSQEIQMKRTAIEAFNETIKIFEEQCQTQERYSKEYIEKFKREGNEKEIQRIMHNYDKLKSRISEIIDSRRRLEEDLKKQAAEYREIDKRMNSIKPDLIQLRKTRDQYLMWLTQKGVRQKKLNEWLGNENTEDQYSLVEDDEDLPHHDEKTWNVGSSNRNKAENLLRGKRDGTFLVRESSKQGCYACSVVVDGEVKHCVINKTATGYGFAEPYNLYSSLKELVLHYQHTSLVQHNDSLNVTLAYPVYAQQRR
Nature of the data set: Cell-free kinase assay (ALPHA technology), PI3K-ALPHA. The format is biochemical. Conditions: 100 μM ATP, recombinant human kinase. Here is the method:
as §13, §14, §4, §5, §6

Data set [8] concerns BxPC3. Description: XTT assay, anti-proliferative action, BxPC3. The format is cell-based. Conditions: BxPC3 cells, 45 h incubation. Here is the method:
as §7, §8, §9, §10, §11, §12

For data set [9], the target named is T3, p38alpha (Homo sapiens, UniProt Q16539).
T3 construct: in some cases as full-length kinases, in some cases as truncated fragments
T3 sequence (Q16539 whole entry, the tested form may be a part): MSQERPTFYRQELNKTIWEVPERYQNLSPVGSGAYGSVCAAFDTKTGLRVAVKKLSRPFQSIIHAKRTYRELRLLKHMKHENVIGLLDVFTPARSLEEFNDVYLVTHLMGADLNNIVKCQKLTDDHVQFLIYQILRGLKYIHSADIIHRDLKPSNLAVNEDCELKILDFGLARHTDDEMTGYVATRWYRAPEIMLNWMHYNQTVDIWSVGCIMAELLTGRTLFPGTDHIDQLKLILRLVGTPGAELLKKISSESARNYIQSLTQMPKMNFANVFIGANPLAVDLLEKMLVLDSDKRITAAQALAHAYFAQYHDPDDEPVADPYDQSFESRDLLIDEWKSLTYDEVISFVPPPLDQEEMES
Description: Cell-free kinase assay (ALPHA technology), p38alpha. Format: biochemical. Conditions: at 10 μM or 100 μM* ATP, recombinant human kinase. Here is the method:
as §3, §4, §5, §6

In turn, `CCNC(=O)Nc1ccc2ncc(-c3ccc(OC(=O)OC)cc3)nc2n1` [Compound 9, 4-[6-(3-Ethylurea)pyrido[2,3-b]pyrazin-3-yl]phenyl methyl carbonate] returned a melting point of 243 to 245 °C. Besides, the inhibition at 50 µM in [1] came out at 50%. Moreover, testing at 50 µM in [2] gave an inhibition of 90%. Also, the IC50 in data set [3] was > 100 µM.
For `CCNC(=O)Nc1ccc2ncc(-c3cccc(OC(=O)OCCOC)c3)nc2n1` [Compound 16, 3-[6-(3-Ethylurea)pyrido[2,3-b]pyrazin-3-yl]phenyl 2-methoxyethyl carbonate], the EC50 in [4] was 11 µM; in [6] (Homo sapiens, MDA-MB-468, 45 h), 11 µM; in data set [8] (Homo sapiens, BXPC-3, 45 h) it was > 25 µM. Further, the figures for the IC50 in data set [5], in [7] and in data set [3] were 0.513 µM, 3.3 µM and 5.6 µM, respectively.
Regarding `CCNC(=O)Nc1ccc2ncc(-c3ccc(OC(=O)OCC(C)C)cc3)nc2n1` [Compound 17, 4-[6-(3-Ethylurea)pyrido[2,3-b]pyrazin-3-yl]phenyl isobutyl carbonate], the EC50 was 3.4 µM in data set [4]; > 25 µM in [6] (Homo sapiens, MDA-MB-468, 45 h); > 25 µM in data set [8] (Homo sapiens, BXPC-3, 45 h). Further, the IC50 is 0.167 µM in data set [5], 11.8 µM in data set [7] and > 100 µM in data set [3].
Regarding `CCNC(=O)Nc1ccc2ncc(-c3ccc(CN4CCOCC4)cc3)nc2n1` [Compound 28, 1-Ethyl-3-[3-(4-morpholin-4-ylmethylphenyl)pyrido[2,3-b]pyrazin-6-yl]urea], the IC50 in [5] was 0.364 µM; in [7] it was 1.8 µM; in data set [3] it was 5 µM; in data set [9] it was > 100 µM.
On the same counts, the results for `CCNC(=O)Nc1ccc2ncc(-c3ccc(OCCOCCOC)cc3)nc2n1` [Compound 29, 1-Ethyl-3-(3-{4-[2-(2-methoxyethoxy)ethoxy]phenyl}pyrido[2,3-b]pyrazin-6-yl)urea] are 0.396 µM, 2.3 µM, 24.2 µM and > 100 µM.
`CCNC(=O)Nc1ccc2ncc(Nc3ccc(S(C)(=O)=O)cc3)nc2n1` [Compound 48, 1-Ethyl-3-[3-(4-methanesulphonylphenylamino)pyrido[2,3-b]pyrazin-6-yl]urea]: the melting point fell in the range of 275 to 280 °C. In data set [5], the IC50 is > 100 µM. The concentration for half-maximal inhibition (IC50) in data set [7] amounted to 1.1 µM. The IC50 in data set [3] is > 31.6 µM. Moreover, the IC50 in data set [9] was > 100 µM.
As to `CCNC(=O)Nc1ccc2ncc(Nc3cccc(C(=O)NC)c3)nc2n1` [Compound 50, 3-[6-(3-Ethylurea)pyrido[2,3-b]pyrazin-3-ylamino]-N-methylbenzamide], the melting point lay in the range of 228 to 234 °C. For the same compound, the IC50 in data set [5] was found to be 4.7 µM. Besides, the IC50 in [7] worked out at 0.683 µM. Besides, the IC50 in data set [3] is > 31.6 µM. Also, the IC50 in data set [9] came to 18.1 µM.
`CCNC(=O)Nc1ccc2ncc(Nc3ccc(CN4CCCCC4)cc3)nc2n1` [Compound 51, 1-Ethyl-3-[3-(4-piperidin-1-ylmethylphenylamino)pyrido[2,3-b]pyrazin-6-yl]urea]: the melting point lay within 221 to 224 °C. The IC50 in [5] was 19.1 µM. Moreover, the IC50 in data set [7] was 7.5 µM. The half-maximal inhibitory concentration (IC50) in data set [3] is > 31.6 µM. The IC50 in [9] was > 100 µM.
With `CCNC(=O)Nc1ccc2ncc(-c3ccc(OC(=O)OCCOC)cc3)nc2n1` [Compound 56, 4-[6-(3-Ethylurea)pyrido[2,3-b]pyrazin-3-yl]phenyl 2-methoxyethyl carbonate p-toluenesulphonate], the EC50 in data set [4] was 9.4 µM; in [6] it was 15.5 µM; in data set [8], > 20 µM. Besides, the results for the 50% inhibitory concentration (IC50) in data set [5], in data set [7] and in data set [3] were 0.272 µM, 1.3 µM and 3.1 µM, respectively.
Consider `CONC(=O)Nc1ccc2ncc(-c3ccc(O)c(OC)c3)nc2n1` [Compound 61, 1-Methoxy-3-[3-(4-hydroxy-3-methoxy-phenyl)-pyrido[2,3-b]pyrazin-6-yl]-urea], for which the EC50 amounted to 6 µM in [4] and 7.1 µM in [6] (Homo sapiens, MDA-MB-468, 45 h). Moreover, the IC50 in [5] was 0.3 µM; in [7], 1.5 µM; in [3] it was 2.1 µM; in data set [9] it was > 100 µM.

The term inhibition denotes how much of the control response was suppressed. Low readings indicate a weak effect, high ones a strong effect. Broadly, the melting point is the temperature of the solid-liquid transition. What is called IC50 is the concentration that inhibits the measured activity by half. Broadly, the EC50 is the concentration giving half of the maximal effect.

For the origin of these results see patent publication US8217042B2, “Pyridopyrazines and their use as modulators of kinases” (Zentaris GmbH, priority 2005, dated 2012).
